Tests used:
[1] = system: Respiratory syncytial virus recombinant with luciferase (RSV-Luc5); assay: NHBE RSV-Luc5 384-well assay (EC50 RSVFLUC NHBE-384); type: cell-based; conditions: human respiratory syncytial virus, 72 h, read-out: EC50 RSV FLUC NHBE 384 V2 (per Ex. U)
Source text: Example U. NHBE RSV-Luc5 384-Well Assay (EC50 RSVFLUC NHBE-384)
Normal Human Bronchial Epithelial (NHBE) cells were purchased from Lonza (Walkersville, MD Cat #CC2540) and maintained in BEGM Bronchial Epithelial Cell Growth Medium BulletKit (Lonza CC-3170).
Cells were thawed, expanded, and were used for experiments at passage 2. Respiratory syncytial virus recombinant with luciferase (RSV-Luc5) (≥1×107 Infectious Units/ml (IU/ml) determined by TCID50) was purchased from Microbiologics (Saint Cloud, MN). Viral replication was determined in NHBE cells in the following manner.
Compounds are prepared in 100% DMSO in 384-well polypropylene plates (Greiner, Monroe, NC, Cat #784201) with 8 compounds per plate in grouped replicates of 4 at 10 serially diluted concentrations (1:3). The serially diluted compounds were transferred to low dead volume Echo plates (Labcyte, Sunnyvale, CA, Cat #LP-0200).
The test compounds were spotted to 384-well assay plates (Greiner, Monroe, NC, Cat #781091) at 200 nL per well. NHBE cells were harvested and suspended in BEGM Bronchial Epithelial Cell Growth Medium BulletKit and seeded to the pre-spotted assay plates at 5,000 cells per well in 30 μL. RSV-Luc5 virus was diluted in BEGM Bronchial Epithelial Cell Growth Medium BulletKit at 500,000 Infectious Units (IU) per mL and 10 μL per well was added to the assay plates containing cells and compounds, for an MOI of 1. The assay plates were incubated for 3 days at 37° C. and 5% CO2. At the end of incubation, One-Glo reagent (Promega, Madison, WI, Cat #E6120) was prepared. The assay plates and One-Glo reagent were equilibrated to room temperature for at least 15 minutes. 40 μL per well of One-Glo reagent was added and the plates were incubated at room temperature for 15 minutes before reading the luminescence signal on an En Vision multimode plate reader (Perkin Elmer, Waltham, MA). Remdesivir was used as positive control and DMSO was used as negative control. Values were normalized to the positive and negative controls (as 0% and 100% replication, respectively) and data was fitted using non-linear regression analysis by Gilead's dose response tool. The EC50 value for each compound was defined as the concentration reducing the viral replication by 50%.

[2] = system: Human Rhinovirus 14 (HRV14); assay: H1-HeLa HRV-CTG EC50, HRV14; type: cell-based; conditions: Rhinovirus B, 96 h; H1-HeLa cells, HRV14, MOI 1.0, 4 days, Celltiter-Glo; read-out: EC50 H1-HeLa_HRV14_HRV-CTG 384-well Assay (per Ex Z)
Source text: Example Z: H1-HeLa HRV-CTG EC50
H1-Hela cell line (ATCC, Manassas, VA, Cat #CRL-1958) was maintained in Dulbecco's […] Essential Medium (DMEM) (Corning, New York, NY, Cat #15-018 CM) supplemented with 10% fetal bovine serum (FBS) (Hyclone, Logan, UT, Cat #SH30071-03), and 1× Penicillin-Streptomycin-L-Glutamine (Corning, New York, NY, Cat #30-009-CI). Cells were passaged 2 times per week to maintain sub-confluent densities and were used for experiments at passage 5-30. The Human Rhinovirus 1B (HRVIB) (ATCC, Manassas, VA, Cat #VR-1645), Human Rhinovirus 14 (HRV14) (ATCC, Manassas, VA, Cat #VR-284), and Human Rhinovirus 16 (HRV16) (ATCC, Manassas, VA, Cat #BR-283) was obtained through ATCC. Viral infection was monitored by determining viability of H1-HeLa cells as described below.
Test molecules are prepared in 100% DMSO in 384-well polypropylene plates (Greiner, Monroe, NC, Cat #784201) with 8 compounds per plate in grouped replicates of 4 at 10 serially diluted concentrations (1:3). […]
The test compounds were spotted to 384-well assay plates (Greiner, Monroe, NC, Cat #781091) at 200 nL per well using an Echo acoustic dispenser (Labcyte, Sunnyvale, CA). […] 40 μL per well of Celltiter-Glo reagent was added and the plates were incubated at room temperature for 15 minutes before reading the luminescence signal on an En Vision multimode plate reader (Perkin Elmer, Waltham, MA). […]

Row | SMILES | EC50 [1] [nM] | EC50 [2] [nM]
1 | N#Cc1cc(F)cc(CO[C@H](CCCCCCCCCCCCCCCCCCC(F)(F)F)COP(=O)(O)OC[C@@]2(C#N)O[C@@H](c3ccc4c(N)ncnn34)[C@H](O)[C@@H]2O)c1 [Compound 2, ((2R,3S,4R,5S)-5-(4-aminopyrrolo[2,1-f][1,2,4]triazin-7-yl)-2-cyano-3,4-dihydroxytetrahydrofuran-2-yl)methyl ((R)-2-((3-cyano-5-fluorobenzyl)oxy)-21,21,21-trifluorohenicosyl) hydrogen phosphate] | 30 | 87
2 | N#Cc1cc(F)cc(CO[C@H](COCCCCCCCCCCCCCCCCCC(F)(F)F)COP(=O)(O)OC[C@@]2(C#N)O[C@@H](c3ccc4c(N)ncnn34)[C@H](O)[C@@H]2O)c1 [Compound 1, ((2R,3S,4R,5S)-5-(4-aminopyrrolo[2,1-f][1,2,4]triazin-7-yl)-2-cyano-3,4-dihydroxytetrahydrofuran-2-yl)methyl ((R)-2-((3-cyano-5-fluorobenzyl)oxy)-3-((18,18,18-trifluorooctadecyl)oxy)propyl) hydrogen phosphate] | 26 | 34
